What was measured:
[1] = test system: provirus VIH-1; experiment: Integration of the viral genome into chromosomal DNA of Supt-1 cells (PCR of gag, LTR, env; hybridisation with P32 probes); format: cell-based; conditions: for provirus VIH-1 dans les cellules Supt-1: hybridisation with P32 probes for gag, LTR, env
Source text: Intégration du génome viral dans l'ADN chromosomial des cellules Supt-1.
Par amplification génétique grâce à une polymérase thermostable, on met en évidence la présence des gènes "gag", "LTR" et "env" du provirus VIH-1. Cette technique est appelée P.C.R. (Polymerase Chain Reaction) (CHIN-YIH OU et cons., Sciences, 239, 295-297, 1988).
Cette technique est appliquée pour la détection du provirus VIH-1 dans le génome des cellules Supt-1 inoculées par du virus VIH-1 incubé avec de la chloroazodine, comme décrit dans l'exemple 4.

[2] = test system: virus VIH-1 dans des lymphocytes humains infectés; experiment: p24 antigen of treated HIV-1 infected human lymphocytes (optical density); format: cell-based; conditions: chloroazodine 1/3000
Source text: On a reproduit l'expérience de l'exemple 7, mais avec des lymphocytes humains infectés par du VIH-1. La chloroazodine a été utilisée à la dose de 1/3000 pendant 1 heure, 3 heures et 6 heures sur les cellules infectées. Tableau 6
Afin de conserver un nombre suffisant de lymphocytes vivants il a fallu limiter l'expérimentation à 6 heures.

NC(N=NC(N)=NCl)=NCl [chloroazodine, N, N'-dichloroazodicarbonamidine]
oligonucléotides amplifiés et visibles aux UV ([1]; PCR, ethidium bromide): apparaissent uniquement dans les tubes à essais qui correspondent à une inoculation par du virus VIH-1 non traité à la chloroazodine
provirus VIH-1 dans les cellules Supt-1 ([1]; virions treated at dilution 1/1500): absence totale de provirus VIH-1
provirus VIH-1 dans les cellules Supt-1 ([1]; virions treated at dilution 1/3000): absence totale de provirus VIH-1
Mesure du pouvoir infectieux des virus VIH-1 dans des lymphocytes humains infectés (densité optique) ([2]; treatment 1 hour, 4 days after treatment): 0,170
Mesure du pouvoir infectieux des virus VIH-1 dans des lymphocytes humains infectés (densité optique) ([2]; treatment 1 hour, 7 days after treatment): 0,170
Mesure du pouvoir infectieux des virus VIH-1 dans des lymphocytes humains infectés (densité optique) ([2]; treatment 1 hour, 11 days after treatment): 0,114
Mesure du pouvoir infectieux des virus VIH-1 dans des lymphocytes humains infectés (densité optique) ([2]; treatment 3 hours, 4 days after treatment): 0,197
Mesure du pouvoir infectieux des virus VIH-1 dans des lymphocytes humains infectés (densité optique) ([2]; treatment 3 hours, 7 days after treatment): 0,158
Mesure du pouvoir infectieux des virus VIH-1 dans des lymphocytes humains infectés (densité optique) ([2]; treatment 3 hours, 11 days after treatment): 0,095
Mesure du pouvoir infectieux des virus VIH-1 dans des lymphocytes humains infectés (densité optique) ([2]; treatment 6 hours, 4 days after treatment): 0,192
Mesure du pouvoir infectieux des virus VIH-1 dans des lymphocytes humains infectés (densité optique) ([2]; treatment 6 hours, 7 days after treatment): 0,203
Mesure du pouvoir infectieux des virus VIH-1 dans des lymphocytes humains infectés (densité optique) ([2]; treatment 6 hours, 11 days after treatment): 0,078

— patent publication EP0504184B1, “ACTIVE AGENT AGAINST RETROVIRUS GROUP VIRUSES, COMPOSITIONS CONTAINING SAME AND THEIR USE” (PREVISAN S.A., priority 1989, dated 1991)
